Results from PubChem BioAssay (NCI).
“And” between values parts separate entries of the source, which are not always exact repeats. Equal entries are not always repeated.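 Cultured in 96-well plates, cells were exposed to test compound for 48 hours across five concentrations. The concentration for 50% growth inhibition is given as GI50. At the TGI there is no net growth.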

Tests used:
Test in all cases: NCI tumour cell line growth inhibition, 48 h
OVCAR-5 ovarian = system: OVCAR-5 ovarian
SNB-75 CNS = system: SNB-75 CNS
KM12 colon = system: KM12 colon
UO-31 renal = system: UO-31 renal
SNB-19 CNS = system: SNB-19 CNS
RXF 393 renal = system: RXF 393 renal
CAKI-1 renal = system: CAKI-1 renal
ACHN renal = system: ACHN renal
MDA-MB-231 breast = system: MDA-MB-231 breast
UACC-62 melanoma = system: UACC-62 melanoma

## COc1cc2c(cc1OC)C13CCN4C=C5CCOC6CC(=O)N2C1C6C5CC43 (stereo not given)
OVCAR-5 ovarian
  TGI: > 100 µM
SNB-75 CNS
  TGI: > 100 µM
KM12 colon
  TGI: > 100 µM
UO-31 renal
  TGI: > 100 µM
SNB-19 CNS
  TGI: > 100 µM
RXF 393 renal
  TGI: > 100 µM
CAKI-1 renal
  TGI: > 100 µM
ACHN renal
  TGI: > 100 µM
MDA-MB-231 breast
  TGI: > 100 µM
UACC-62 melanoma
  TGI: > 100 µM

## COc1cc(-c2nn3c(/C=C4/C(=O)Nc5ccccc54)c(-c4ccc(C)cc4)nc3s2)cc(OC)c1OC
OVCAR-5 ovarian
  GI50: > 100 µM
  TGI: > 100 µM
SNB-75 CNS
  GI50: 0.552 µM
  TGI: 10.7 µM
KM12 colon
  GI50: > 100 µM
  TGI: > 100 µM
UO-31 renal
  GI50: 8.44 µM
  TGI: > 100 µM
SNB-19 CNS
  GI50: 7.89 µM
  TGI: 34.2 µM
RXF 393 renal
  GI50: 2.24 µM
  TGI: 14.7 µM
CAKI-1 renal
  GI50: 15.4 µM
  TGI: > 100 µM
ACHN renal
  GI50: 4.98 µM
  TGI: 23.7 µM
MDA-MB-231 breast
  GI50: 3.51 µM
  TGI: 20.8 µM
UACC-62 melanoma
  GI50: 5.47 µM
  TGI: > 100 µM

## COc1ccc2c(c1)C(=O)c1c-2n(CCCN)c(=O)c2ccccc12
OVCAR-5 ovarian
  GI50: 0.142 µM
  TGI: 1.18 µM
SNB-75 CNS
  GI50: 0.0151 µM
  TGI: 1.54 µM
KM12 colon
  GI50: 0.0144 µM
  TGI: 0.0784 µM
UO-31 renal
  GI50: 0.0417 µM
  TGI: 0.486 µM
SNB-19 CNS
  GI50: < 0.0198 µM
  TGI: 0.105 µM
RXF 393 renal
  GI50: 0.137 µM
  TGI: 0.91 µM
CAKI-1 renal
  GI50: < 0.0468 µM
  TGI: 0.251 µM
ACHN renal
  GI50: < 0.0134 µM
  TGI: 0.0408 µM
MDA-MB-231 breast
  GI50: 0.0704 µM
  TGI: 0.24 µM
UACC-62 melanoma
  GI50: 0.166 µM
  TGI: 1.21 µM

## COC(=O)[C@@H](NC(=O)NC(=O)NC(=O)CI)C(C)C
OVCAR-5 ovarian
  GI50: 13.2 µM
  TGI: 29.7 µM
SNB-75 CNS
  GI50: 13.2 µM
  TGI: 26.8 µM
KM12 colon
  GI50: 17.4 µM
  TGI: 33.8 µM
UO-31 renal
  GI50: 1.67 µM
  TGI: 3.2 µM
SNB-19 CNS
  GI50: 18.8 µM
  TGI: 37.7 µM
RXF 393 renal
  GI50: 6.35 µM
  TGI: 18.8 µM
CAKI-1 renal
  GI50: 1.41 µM
  TGI: 2.73 µM
ACHN renal
  GI50: 1.81 µM
  TGI: 3.47 µM
MDA-MB-231 breast
  GI50: 17 µM
  TGI: 34.9 µM
UACC-62 melanoma
  GI50: 14.4 µM
  TGI: 29.9 µM

## C=C(CNC(=O)Nc1ccc(-c2ccccc2)cc1)c1ccc(C(=O)Nc2ccccc2N)cc1
OVCAR-5 ovarian
  GI50: > 100 µM
  TGI: > 100 µM
SNB-75 CNS
  GI50: 30.6 µM
  TGI: 96.2 µM
KM12 colon
  GI50: 10.8 µM
  TGI: > 100 µM
UO-31 renal
  GI50: > 100 µM
  TGI: > 100 µM
SNB-19 CNS
  GI50: 98.7 µM
  TGI: > 100 µM
RXF 393 renal
  GI50: 23.7 µM
  TGI: 59 µM
CAKI-1 renal
  GI50: > 100 µM
  TGI: > 100 µM
ACHN renal
  GI50: > 100 µM
  TGI: > 100 µM
MDA-MB-231 breast
  GI50: 31.1 µM
  TGI: > 100 µM
UACC-62 melanoma
  GI50: > 100 µM
  TGI: > 100 µM

## CN1CCN(c2ccc(C(=O)Nc3n[nH]c4ccc(Cc5cc(F)cc(F)c5)cc34)c(NC3CCOCC3)c2)CC1
OVCAR-5 ovarian
  GI50: 1.85 µM and 1.31 µM
  TGI: > 10 µM and 2.73 µM
SNB-75 CNS
  GI50: 1.05 µM
  TGI: 2.36 µM
KM12 colon
  GI50: 0.00436 µM
  TGI: 1.49 µM and 1.12 µM
UO-31 renal
  GI50: 1.03 µM and 1.17 µM
  TGI: 2.28 µM and 2.61 µM
SNB-19 CNS
  GI50: 4.24 µM and 1.79 µM
  TGI: > 10 µM and 3.53 µM
RXF 393 renal
  GI50: 1.17 µM
  TGI: 2.69 µM
CAKI-1 renal
  GI50: 8.53 µM and 1.56 µM
  TGI: > 10 µM and 3.07 µM
ACHN renal
  GI50: 2.25 µM and 1.42 µM
  TGI: > 10 µM and 2.8 µM
MDA-MB-231 breast
  GI50: 1.89 µM and 1.5 µM
  TGI: 5.51 µM and 3.06 µM
UACC-62 melanoma
  GI50: 1.52 µM and 1.6 µM
  TGI: 3.03 µM and 3.1 µM

## C=C1C(=O)O[C@H]2[C@H]1CC/C(CNC(=O)/C=C/c1ccc(Br)cc1)=C\CC[C@@]1(C)O[C@@H]21
OVCAR-5 ovarian
  GI50: 1.7 µM
  TGI: 3.75 µM
SNB-75 CNS
  GI50: 1.23 µM
  TGI: 2.49 µM
KM12 colon
  GI50: 1.87 µM
  TGI: 3.8 µM
UO-31 renal
  GI50: 0.97 µM
  TGI: 2.19 µM
SNB-19 CNS
  GI50: 1.61 µM
  TGI: 4.6 µM
RXF 393 renal
  GI50: 0.26 µM
  TGI: 1.4 µM
CAKI-1 renal
  GI50: 1.12 µM
  TGI: 2.34 µM
ACHN renal
  GI50: 0.848 µM
  TGI: 2.08 µM
MDA-MB-231 breast
  GI50: 1.41 µM
  TGI: 2.94 µM
UACC-62 melanoma
  GI50: 1.34 µM
  TGI: 2.78 µM

## Nc1ccn(C2OC(CO)C(O)C2F)c(=O)n1 (stereo not given)
OVCAR-5 ovarian
  GI50: > 5000 µM
  TGI: > 5000 µM
SNB-75 CNS
  GI50: > 5000 µM
  TGI: > 5000 µM
KM12 colon
  GI50: > 5000 µM
  TGI: > 5000 µM
UO-31 renal
  GI50: > 5000 µM
  TGI: > 5000 µM
SNB-19 CNS
  GI50: 19.5 µM
  TGI: > 5000 µM
RXF 393 renal
  GI50: > 5000 µM
  TGI: > 5000 µM
CAKI-1 renal
  GI50: 582 µM and > 5000 µM
  TGI: > 5000 µM
ACHN renal
  GI50: > 5000 µM
  TGI: > 5000 µM
MDA-MB-231 breast
  GI50: > 5000 µM
  TGI: > 5000 µM
UACC-62 melanoma
  GI50: > 5000 µM
  TGI: > 5000 µM

## COc1cc(/C(Cl)=C/C=C/C(=O)c2c(C)[n+]([O-])c3ccc(Cl)cc3[n+]2[O-])cc(OC)c1OC
OVCAR-5 ovarian
  GI50: 13 µM
  TGI: 33.2 µM
SNB-75 CNS
  GI50: 4.06 µM
  TGI: 19.6 µM
KM12 colon
  GI50: 5.07 µM
  TGI: > 50 µM
UO-31 renal
  GI50: 2.63 µM
  TGI: 18.7 µM
SNB-19 CNS
  GI50: 15 µM
  TGI: > 50 µM
RXF 393 renal
  GI50: 9.15 µM
  TGI: 28 µM
CAKI-1 renal
  GI50: 1.66 µM
  TGI: 10.6 µM
ACHN renal
  GI50: 5.15 µM
  TGI: 11.6 µM
MDA-MB-231 breast
  GI50: 6.94 µM
  TGI: 17.8 µM
UACC-62 melanoma
  GI50: 3.42 µM
  TGI: 27.1 µM

## Cc1c2cnccc2c(C)c2c1c1cc(C3OCCCO3)ccc1n2C
OVCAR-5 ovarian
  GI50: 0.436 µM
  TGI: 3.7 µM
SNB-75 CNS
  GI50: 0.257 µM
  TGI: 1.37 µM
KM12 colon
  GI50: 0.5 µM
  TGI: 3.77 µM
UO-31 renal
  GI50: 0.278 µM
  TGI: 2.27 µM
SNB-19 CNS
  GI50: 0.295 µM
  TGI: 2.97 µM
RXF 393 renal
  GI50: 0.172 µM
  TGI: 0.921 µM
CAKI-1 renal
  GI50: 0.314 µM
  TGI: 3.45 µM
ACHN renal
  GI50: 0.318 µM
  TGI: 2.04 µM
MDA-MB-231 breast
  GI50: 0.322 µM
  TGI: 1.8 µM
UACC-62 melanoma
  GI50: 0.197 µM
  TGI: 0.747 µM

## CN(C)CCCOc1ccccc1NC1=C(Cl)C(=O)C(Nc2ccccc2OCCCN(C)C)=C(Cl)C1=O
OVCAR-5 ovarian
  GI50: 1.4 µM
  TGI: 2.84 µM
SNB-75 CNS
  GI50: 1.62 µM
  TGI: 3.02 µM
KM12 colon
  GI50: 0.762 µM
  TGI: 2.2 µM
UO-31 renal
  GI50: 1.21 µM
  TGI: 2.46 µM
SNB-19 CNS
  GI50: 1.57 µM
  TGI: 3.02 µM
RXF 393 renal
  GI50: 1.17 µM
  TGI: 2.43 µM
CAKI-1 renal
  GI50: 1.07 µM
  TGI: 2.27 µM
ACHN renal
  GI50: 0.941 µM
  TGI: 2.13 µM
MDA-MB-231 breast
  GI50: 0.511 µM
  TGI: 1.4 µM
UACC-62 melanoma
  GI50: 1.58 µM
  TGI: 3.05 µM

## Cc1c2cc[nH]c(=O)c2c(C)c2c1[nH]c1cc(OCCN3CCN(C)CC3)ccc12
OVCAR-5 ovarian
  GI50: 0.944 µM
  TGI: 11.6 µM
SNB-75 CNS
  GI50: 1.23 µM
  TGI: 6.81 µM
KM12 colon
  GI50: 1.19 µM
  TGI: 5.61 µM
UO-31 renal
  GI50: 1.06 µM
  TGI: 3.09 µM
SNB-19 CNS
  GI50: 0.946 µM
  TGI: 11.2 µM
RXF 393 renal
  GI50: 1.21 µM
  TGI: 2.72 µM
CAKI-1 renal
  GI50: 2.17 µM
  TGI: 9.55 µM
ACHN renal
  GI50: 0.473 µM
  TGI: 3.83 µM
MDA-MB-231 breast
  GI50: 0.783 µM
  TGI: 3.19 µM
UACC-62 melanoma
  GI50: 1.13 µM
  TGI: 2.9 µM

## Cn1cc(-c2nonc2-c2c[nH]c3ccccc23)c2ccccc21
OVCAR-5 ovarian
  GI50: 1.24 µM
  TGI: 16.4 µM
SNB-75 CNS
  GI50: 0.188 µM
  TGI: 0.761 µM
KM12 colon
  GI50: 0.396 µM
  TGI: 8.74 µM
UO-31 renal
  GI50: 0.323 µM
  TGI: 7.65 µM
SNB-19 CNS
  GI50: 0.385 µM
  TGI: 10.9 µM
RXF 393 renal
  GI50: 0.378 µM
  TGI: 5.7 µM
CAKI-1 renal
  GI50: 0.413 µM
  TGI: 15 µM
ACHN renal
  GI50: 0.527 µM
  TGI: 13.4 µM
MDA-MB-231 breast
  GI50: 0.489 µM
  TGI: 3.23 µM
UACC-62 melanoma
  GI50: 0.341 µM
  TGI: 5.1 µM

## Cc1[nH]ncc1-c1cc2nc(C3CC4CCN3CC4)[nH]c(=O)c2s1 (stereo not given)
OVCAR-5 ovarian
  GI50: 3.33 µM
  TGI: > 100 µM
SNB-75 CNS
  GI50: 1.01 µM
  TGI: 9.55 µM
KM12 colon
  GI50: 4.07 µM
  TGI: > 100 µM
UO-31 renal
  GI50: 2.91 µM
  TGI: > 100 µM
SNB-19 CNS
  GI50: 4.78 µM
  TGI: > 100 µM
RXF 393 renal
  GI50: 2.36 µM
  TGI: 5.96 µM
CAKI-1 renal
  GI50: 2.43 µM
  TGI: > 100 µM
ACHN renal
  GI50: 1.88 µM
  TGI: > 100 µM
MDA-MB-231 breast
  GI50: 4.89 µM
  TGI: > 100 µM
UACC-62 melanoma
  GI50: 3.28 µM
  TGI: 17.6 µM
